Like-named read-outs stand apart in the source and are kept apart here. Bridge positions count the residues as written; N and C are the ends. Square brackets hold non-standard residues; d marks the D form. Peptide text beside a SMILES is read from it. Abu = CC[C@H](N)C(=O)O
Target: porcine pancreatic elastase (Sus scrofa, UniProt P00772)
Assay: Elastase inhibitory activity of peptides (AAApNA hydrolysis; IC50, Ki, residual activity)
Type: biochemical
Details: for Residual activity of elastase / IC50: elastase 0.5 μM, AAApNA 1 mM
Procedure: The inhibition constants of various synthetic active peptide inhibitors (molecular scaffolds) against seine proteases were measured. The substrates N-succinyl-Ala-Ala-Pro-Phe-p-nitroaniline (AAPFpNA), Nα—Benzoyl-L-arginine-4-nitroaniline hydrochloride (BApNA) and N-succinyl-[…] (AAApNA) are used in competitive binding reaction to determine the inhibitory activities against α-chymotrypsin, bovine trypsin, and porcine pancreatic elastase, respectively. Experiments for α-chymotrypsin and bovine trypsin inhibition were measured in 20 mM CaCl2, 50 mM Tris-HCl buffer (pH 7.8), and that for porcine elastase inhibition was measured in 50 mM Tris-HCl buffer (pH 8.0). The concentration of the peptide was measured using optical density (OD) at 280 nm. The Michaelis constant (Km) of the enzyme hydrolysis substrate is calculated from the initial rate of substrate hydrolysis at 405 nm. The absorbance value of the substrate was measured at 405 nm after complete hydrolysis. All data were processed using nonlinear regression.
• (1) Added a total 198 μL of reaction buffer (20 mM CaCl2, 50 mM Tris-HCl (pH 8.0)) into the 96 well plate, followed by preheating at 37° C. for 15 min. Then added 2 μL of different concentrations of substrates (pNA, dissolved in DMSO), and mixed by centrifugation at 500 rpm for 1 min. Finally, the plate was incubated at 37° C. for 30 min, and the absorbance value at 405 nm was measured. In the 200 μL of reaction system, the final concentrations of pNA were 0, 0.025, 0.05, 0.075, 0.1, 0.125, 0.15, 0.175, and 0.2 mM, respectively. Make three repetitions for each concentration and plot the OD405 m value with pNA concentration to obtain the standard curve. • (2) Added a total 190 μL of reaction buffer (20 mM CaCl2, 50 mM Tris-HCl (pH 8.0)) and 8 μL of 4.375 μM elastase into the 96 well plate, followed by preheating at 37° C. for 5 min. Then added 2 μL of different concentrations of substrates (AAApNA, dissolved in DMSO), and mixed by centrifugation at 500 rpm for 1 min. Finally, the plate was incubated at 37° C. for 30 min, and the absorbance value at 405 nm was measured. In the 200 μL of reaction system, the final concentrations of AAApNA were 0, 0.125, 0.166, 0.2, 0.25, 0.33, 0.6, 0.75, and 1.25 mM, respectively. Make three repetitions for each concentration and plot the OD405 nm value with time to obtain the corresponding curve. Divide the slope of the curve by the slope of the standard curve and the enzyme concentration to obtain the initial velocity V0 (mM/(min*mM protein). Plot the initial velocity V0 with the concentration of substrate AAApNA using Prism software, and the Michaelis constant Km value of elastase hydrolyzing AAApNA was obtained.
• (1) Added a total 190 μL of different concentrations of peptides (ECs) against elastase and reaction buffer (20 mM CaCl2, 50 mM Tris-HCl buffer (pH 8.0)) into the pre-cold 96 well plate, followed by preheating at 37° C. for 5 min and centrifugated at 500 rpm for 1 min and allowed to stand for 4 minutes. Then added 8 μL of 12.5 μM elastase and incubated at 37° C. for 10 min and centrifugated at 500 rpm for 1 min and allowed to stand for 9 minutes. Finally, added 2 μL of 100 mM AAApNA, and mixed by centrifugation at 500 rpm for 1 min. The plate was incubated at 37° C. for 60 min, and the absorbance value at 405 nm was measured. Three repetitions were made, and only reaction buffer and substrate were added in the blank control as the minimum absorption value (Min OD405 nm); Only reaction buffer, enzyme and substrate were added in the negative control as the maximum absorption value (Max OD405 nm). • (2) In the 200 μL of reaction system, the final concentrations of elastase and AAApNA were 0.5 μM and 1 mM, respectively. • (3) Data statistics
Residual activity of enzyme (%)=(1−(Max OD405 nm−Sample OD405 nm)/(Max OD405 nm−Min OD405 nm))*100 […]

Sequence of porcine pancreatic elastase (P00772 27-266): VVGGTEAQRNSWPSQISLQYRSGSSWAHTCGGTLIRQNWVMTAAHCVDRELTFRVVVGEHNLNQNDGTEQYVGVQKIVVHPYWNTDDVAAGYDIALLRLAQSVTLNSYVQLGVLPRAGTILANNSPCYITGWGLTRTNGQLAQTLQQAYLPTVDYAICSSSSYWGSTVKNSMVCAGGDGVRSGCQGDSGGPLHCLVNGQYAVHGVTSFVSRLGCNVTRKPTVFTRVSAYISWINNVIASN

SMILES | Residual activity of elastase (peptide 0.001 μM) [%] | Residual activity of elastase (peptide 0.01 μM) [%] | Residual activity of elastase (peptide 0.1 μM) [%] | Residual activity of elastase (peptide 1 μM) [%] | Residual activity of elastase (peptide 10 μM) [%] | Residual activity of elastase (peptide 100 μM) [%] | Residual activity of elastase (peptide 1000 μM) [%] | IC50 [µM] | further results
CC[C@H](C)[C@H](N)C(=O)N[C@H]1CSSC[C@@H](C(=O)N[C@@H](CCC(N)=O)C(=O)O)NC(=O)[C@H](CCC(N)=O)NC(=O)[C@@H]2CCCN2C(=O)[C@@H]2CCCN2C(=O)[C@H]([C@@H](C)CC)NC(=O)[C@H](CO)NC(=O)[C@H](C)NC(=O)[C@H]([C@@H](C)O)NC1=O [EC19] (H-ICTASIPPQCQ-OH; disulfide 2-10; N-terminus and C-terminus assumed) | 99.9 ± 0.5 | 99.4 ± 0.1 | 96.1 ± 0.9 | 52.1 ± 1.8 | 5.4 ± 0.3 | 0.2 ± 0.1 | 0.0 ± 0.0 | – | Residual activity of elastase (peptide 0.5 μM): 81.2 ± 4.1%; Residual activity of elastase (peptide 2 μM): 29.8 ± 0.8%; Residual activity of elastase (peptide 4 μM): 15.5 ± 0.3%; Ki (read-out: Ki): 0.33 µM
CC[C@H](C)[C@@H]1NC(=O)[C@H](CO)NC(=O)[C@H](C)NC(=O)[C@H]([C@@H](C)O)NC(=O)[C@@H](NC(=O)[C@@H](N)CC(C)C)CSSC[C@@H](C(=O)N[C@@H](CCCNC(=N)N)C(=O)O)NC(=O)[C@H](CCC(N)=O)NC(=O)[C@@H]2CCCN2C(=O)[C@@H]2CCCN2C1=O [EC20] (H-LCTASIPPQCR-OH; disulfide 2-10; N-terminus and C-terminus assumed) | – | – | – | – | – | – | – | > 50 | –
CC[C@H](C)[C@@H]1NC(=O)[C@@H]2CCCN2C(=O)[C@@H]2CCCN2C(=O)[C@H]([C@@H](C)CC)NC(=O)[C@H](CO)NC(=O)[C@H](C)NC(=O)[C@H]([C@@H](C)O)NC(=O)[C@@H](NC(=O)[C@@H](N)C(C)C)CSSC[C@@H](C(=O)N[C@@H](CCC(N)=O)C(=O)O)NC1=O [EC22] (H-VCTASIPPICQ-OH; disulfide 2-10; C-terminus assumed) | 100.1 ± 1.0 | 99.8 ± 0.3 | 92.0 ± 6.8 | 20.4 ± 1.2 | 2.4 ± 0.2 | 0.0 ± 0.0 | −0.2 ± 0.2 | 0.4 | Residual activity of elastase (peptide 0.2 μM): 70.8 ± 4.3%; Residual activity of elastase (peptide 0.4 μM): 51.6 ± 1.7%; Ki (read-out: Ki): 0.11 µM
CC[C@H](C)[C@H](N)C(=O)N[C@H]1CSSC[C@@H](C(=O)N[C@@H](CCC(N)=O)C(=O)O)NC(=O)[C@H]([C@@H](C)CC)NC(=O)[C@@H]2CCCN2C(=O)[C@@H]2CCCN2C(=O)[C@H]([C@@H](C)CC)NC(=O)[C@H](CO)NC(=O)[C@H](C)NC(=O)[C@H]([C@@H](C)O)NC1=O [EC23] (H-ICTASIPPICQ-OH; disulfide 2-10; C-terminus assumed) | 103.0 ± 2.2 | 97.8 ± 4.8 | 76.8 ± 3.1 | 15.1 ± 0.9 | 1.5 ± 0.3 | −0.2 ± 0.1 | −0.2 ± 0.1 | – | Residual activity of elastase (peptide 0.2 μM): 56.4 ± 2.9%; Residual activity of elastase (peptide 0.4 μM): 40.8 ± 2.0%; Residual activity of elastase (peptide 0.6 μM): 23.7 ± 0.2%; Ki (read-out: Ki against elastase): 0.07 µM
CC(C)C[C@H](N)C(=O)N[C@H]1CSSC[C@@H](C(=O)N[C@@H](CCCNC(=N)N)C(=O)O)NC(=O)[C@H]([C@@H](C)O)NC(=O)[C@@H]2CCCN2C(=O)[C@@H]2CCCN2C(=O)[C@H](CC(N)=O)NC(=O)[C@H](CO)NC(=O)[C@H](C)NC(=O)[C@H]([C@@H](C)O)NC1=O [EC28] (H-LCTASNPPTCR-OH; disulfide 2-10) | – | – | – | – | – | – | – | > 50 | –
CC[C@H](C)[C@@H]1NC(=O)[C@@H]2CCCN2C(=O)[C@@H]2CCCN2C(=O)[C@H]([C@@H](C)CC)NC(=O)[C@H](CO)NC(=O)[C@H](C)NC(=O)[C@H]([C@@H](C)O)NC(=O)[C@@H](NC(=O)[C@@H](N)Cc2ccc(O)cc2)CSSC[C@@H](C(=O)N[C@@H](CCC(N)=O)C(=O)O)NC1=O [EC29] (H-YCTASIPPICQ-OH; disulfide 2-10; C-terminus assumed) | 105.9 ± 2.2 | 102.0 ± 2.9 | 92.6 ± 2.7 | 47.5 ± 0.7 | 5.9 ± 0.4 | 0.1 ± 0.1 | 0.1 ± 0.0 | – | Residual activity of elastase (peptide 0.5 μM): 72.7 ± 4.4%; Residual activity of elastase (peptide 2 μM): 28.5 ± 0.4%; Residual activity of elastase (peptide 6 μM): 8.9 ± 0.4%
CC[C@H](C)[C@@H]1NC(=O)CNC(=O)[C@@H](N)CSSC[C@@H](C(=O)N[C@@H](CCC(N)=O)C(=O)O)NC(=O)[C@H]([C@@H](C)CC)NC(=O)[C@@H]2CCCN2C(=O)[C@@H]2CCCN2C(=O)[C@H]([C@@H](C)CC)NC(=O)[C@H](CO)NC(=O)[C@H](C)NC(=O)[C@H]([C@@H](C)O)NC(=O)[C@H](C)NC1=O [EC30] (H-CGIATASIPPICQ-OH; disulfide 1-12) | – | – | – | – | – | – | – | > 50 | –
CC[C@@H]1NC(=O)[C@H]([C@@H](C)CC)NC(=O)CNC(=O)[C@@H](N)CSSC[C@@H](C(=O)N[C@@H](CCC(N)=O)C(=O)O)NC(=O)[C@H]([C@@H](C)CC)NC(=O)[C@@H]2CCCN2C(=O)[C@@H]2CCCN2C(=O)[C@H]([C@@H](C)CC)NC(=O)[C@H](CO)NC(=O)[C@H](C)NC(=O)[C@H]([C@@H](C)O)NC1=O [EC31] (H-CGI[Abu]TASIPPICQ-OH; disulfide 1-12) | – | – | – | – | – | – | – | > 50 | –
CC[C@H](C)[C@@H]1NC(=O)CNC(=O)[C@@H](N)CSSC[C@@H](C(=O)N[C@@H](CCC(N)=O)C(=O)O)NC(=O)[C@H]([C@@H](C)CC)NC(=O)[C@@H]2CCCN2C(=O)[C@@H]2CCCN2C(=O)[C@H]([C@@H](C)CC)NC(=O)[C@H](CO)NC(=O)[C@H](C)NC(=O)[C@H]([C@@H](C)O)NC(=O)[C@H](CO)NC1=O [EC34] (H-CGISTASIPPICQ-OH; disulfide 1-12) | – | – | – | – | – | – | – | > 50 | –
CC[C@H](C)[C@@H]1NC(=O)CNC(=O)[C@@H](N)CSSC[C@@H](C(=O)N[C@@H](CCC(N)=O)C(=O)O)NC(=O)[C@H]([C@@H](C)CC)NC(=O)[C@@H]2CCCN2C(=O)[C@@H]2CCCN2C(=O)[C@H]([C@@H](C)CC)NC(=O)[C@H](CO)NC(=O)[C@H](C)NC(=O)[C@H]([C@@H](C)O)NC(=O)[C@H](Cc2ccccc2)NC1=O [EC36] (H-CGIFTASIPPICQ-OH; disulfide 1-12) | – | – | – | – | – | – | – | > 50 | –
CC[C@H](C)[C@@H]1NC(=O)CNC(=O)[C@@H](N)CSSC[C@@H](C(=O)N[C@@H](CCC(N)=O)C(=O)O)NC(=O)[C@H]([C@@H](C)CC)NC(=O)[C@@H]2CCCN2C(=O)[C@@H]2CCCN2C(=O)[C@H]([C@@H](C)CC)NC(=O)[C@H](CO)NC(=O)[C@H](C)NC(=O)[C@H]([C@@H](C)O)NC(=O)[C@H](CC(N)=O)NC1=O [EC38] (H-CGINTASIPPICQ-OH; disulfide 1-12; C-terminus assumed) | – | – | – | – | – | – | – | 1 | –

Source: US20230416329A1, “A PEPTIDE WITH DISULFIDE BONDS AND INHIBITORY ACTIVITY AGAINST SERINE PROTEASES, DERIVED HYBRID PEPTIDES THEREOF, AND USES THEREOF” (INSTITUTE OF MATERIA MEDICA , CHINESE ACADEMY OF MEDICAL …, priority 2020, published 2023)
